Laboratory results as given in patent US5420138A, “Bicyclic pyridines which are angiotensin II inhibitors” (Roussel-UCLAF, priority 1992, dated 1995).

Key:
angiotensin II receptor = target: T1, angiotensin II receptor (Rattus norvegicus, UniProt P25095); experiment: Test on the angiotensin II receptor (displacement of 125I angiotensin II, fresh rat liver membrane preparation); assay type: binding; details: rat liver membranes, 25° C., 150 minutes, read-out: IC50 (50% inhibiting concentration, displacement of 125I angiotensin II)
T1 construct: A fresh membrane preparation obtained from the liver of a rat was used; from tissue; host or cells: rat liver, fresh membrane preparation
T1 sequence (P25095 1-359): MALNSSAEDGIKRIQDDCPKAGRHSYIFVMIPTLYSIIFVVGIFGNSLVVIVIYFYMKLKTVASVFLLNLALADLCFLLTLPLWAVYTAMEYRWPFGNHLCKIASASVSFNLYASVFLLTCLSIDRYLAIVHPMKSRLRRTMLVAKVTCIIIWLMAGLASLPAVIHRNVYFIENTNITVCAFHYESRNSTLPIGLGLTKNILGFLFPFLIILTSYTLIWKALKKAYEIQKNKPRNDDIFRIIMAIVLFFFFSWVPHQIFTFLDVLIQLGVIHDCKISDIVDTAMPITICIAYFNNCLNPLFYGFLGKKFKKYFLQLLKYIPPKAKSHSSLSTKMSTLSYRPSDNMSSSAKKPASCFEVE
Experimental: A fresh membrane preparation obtained from the liver of a rat was used. The tissue was ground in a polytron in a Tris 50 mM pH 7.4 buffer and the grinding is followed by 3 centrifugings at 30,000 g for 15 minutes with intermediate taking up of the pellets in the Tris pH 7.4 buffer.
The last pellets were suspended in an incubation buffer (Tris 20 mM, NaCl 135 mM, KCl 10 mM, glucose 5 mM, MgCl2 10 mM, PMSF 0.3 mM, bacitracin 0.1 mM, BSA 0.2%).
2 ml aliquot fractions were distributed in hemolysis tubes and ^125 I angiotensin II (25,000 DPM/tube) and the product to be studied were added. The product was first tested with 3×10^-5 M in triplicate. When the tested product displaced more than 50% of the radioactivity bound specifically to the receptor, it was tested again according to a range of 7 concentrations to determine the concentration which inhibited by 50% the radioactivity bound specifically to the receptor. In this way, the 50% inhibiting concentration was determined.
The non-specific bond was determined by the addition of the product of Example 94 of the European Patent 0253310, at 10^-5 M (in triplicate).The product was incubated at 25° C. for 150 minutes, put in a water-bath at 0° C. for 5 minutes, filtered under vacuum, rinsed with Tris pH 7.4 buffer and the radioactivity was counted in the presence of scintillating Triton. […]

angiotensin II [1] = experiment: Test for antagonistic activity of angiotensin II in a demedullated rat (intravenous); assay type: in vivo, Male Sprague-Dawley rats; details: injected via right jugular vein 5 minutes before angiotensin II (0.75 micrograms/kg), diastolic arterial pressure, read-out: ID50 (dose inhibiting the effects on pressure of angiotensin II by 50%)
Experimental: Male Sprague-Dawley rats (250 to 350 g) were anaesthetized by an intra-peritoneal injection of sodium pentobarbital (60 mg/kg). The diastolic arterial pressure was recorded using a heparinated catheter (PE50) introduced into the left carotid artery of the animal, and connected to a pressure processor (Gould, Pressure Processor) by means of a Gould pressure sensor.
A catheter was introduced into the right jugular vein of the animal to permit the injection of the molecules to be studied.
The animal was placed under assisted respiration. A bilateral section of the pneumogastric nerve is carried out. The rat is then demedullated.
After a sufficient period of stabilization, the study of the antagonism of the molecules vis-a-vis angiotensin II (Hypertensin, CIBA) was carried out in the following way:
1--Three consecutive injections of angiotensin II (0.75 micrograms/kg) at 15 minute intervals enabled a reproducible and stable pressure response to be obtained.
2--While keeping an administration frequency of 15 minutes of the angiotensin II, the molecules (0.01 to 10 mg/kg) were injected 5 minutes before the angiotensin II.
The effects on pressure of angiotensin II in the presence of the antagonist were expressed as a percentage of the effects on pressure of angiotensin II administered on its own. The dose inhibiting the studied effect by 50% was determined in this way (ID50). […]

angiotensin II [2] = experiment: Test of the antagonistic activity of angiotensin II by oral route in a demedullated rat; assay type: in vivo, Male Sprague Dawley rats; details: oral (force-feeding), angiotensin II 0.75 ug/kg 60 and 75 minutes after force-feeding, read-out: ID50 (dose inhibiting the effects on pressure of angiotensin II by 50%), oral route
Experimental: Male Sprague Dawley rats of equal weight (300-330 g) were selected. The animals were divided into several groups (n ≥6 per group), receiving either the solvent (control group) or the antagonistic molecule of angiotensin II. The doses administered were determined from the ID50 IV. The solvent used. was methyl cellulose (5 ml/kg).
45 minutes after force-feeding, the animals were anaesthetized with sodium pentobarbital (60 mg/kg, IP). The diastolic arterial pressure was recorded using a heparinated catheter (PE50) introduced into the left carotid artery of the animal, and connected by means of a pressure sensor (Gould, P10 EZ) to a pressure processor (Gould, Pressure Processor). The rat was put under assisted respiration, then demedullated and bilaterally vagotomized.
Two injections of angiotensin II (0.75 ug/kg; Hypertensin, Ciba) were given via the pudendal vein, 60 and 75 minutes respectively after the force-feeding of the animals.
The effects on pressure of angiotensin II in the presence of the antagonist were expressed as a percentage of the effects on pressure of angiotensin II administered to the control group.
For each product, the dose inhibiting the studied effect by 50% (ID50) was thus determined.

Row | IC50 (angiotensin II receptor) | Compound | ED50 (angiotensin II [1]) | ED50 (angiotensin II [2])
1 | 24 nM | CCCCc1nn2c(C)cccc2c1Cc1ccc(-c2ccccc2-c2nn[nH]n2)cc1 [Example 32, 2-butyl 7-methyl 3-[[2'-(1H-tetrazol--S--yl) (1,1'-biphenyl) 4-yl]methyl]pyrazolo (1,5-a) pyridine] | – | –
2 | 0.5 nM | CCCCc1nn2cccc(C(=O)O)c2c1Cc1ccc(-c2ccccc2-c2nnn[nH]2)cc1 [Example 21, 2-butyl 3-[(2'-(1H-tetrazol-5-yl) (1,1'-biphenyl) 4-yl)methyl]pyrazolo(1,5-a)pyridin 4-carboxylic acid] | 0.3 mg/kg | 2.35 mg/kg
